Among the data in the supplement of paper PMC11061612 are Bliss excess values, retold here.

Assay in all cases: Bliss excess, mean over the matrix (fraction); higher = more synergy
Test [1] has as its system BHT-101 (Thyroid Gland Carcinoma). The method, boiled down: (§1)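 Bliss excess equals the observed combination effect minus the expected value EA + EB − EA·EB, where EA and EB are the effects of each agent alone. Combination Emax is the second-highest inhibition within the matrix. Inhibition was scaled from CellTiter-Glo 2.0 luminescence, with 0 set by vehicle wells and 1 by blank wells, after 72 hours of two-drug dosing of cells plated in 1536-well plates.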

In test [2] the test system is C-33-A (Cervical Carcinoma). In a few lines:
as §1

In test [3] the test system is COR-L88 (Small Cell Lung Carcinoma). The method, boiled down: as §1
Test [4] concerns CPC-N (Small Cell Lung Carcinoma). In a few lines: as §1
The test system of test [5] is HT-1080 (Other Solid Carcinomas). The method, boiled down: as §1
In test [6] the test system is KALS-1 (Glioblastoma). In a few lines:
as §1

The test system of test [7] is LCLC-103H (Non-Small Cell Lung Carcinoma). The method, boiled down:
as §1

Test [8] concerns MDA-MB-415 (Breast Carcinoma). The method, boiled down: as §1
Test [9] deals with MOLP-8 (Plasma Cell Myeloma). The method, boiled down:
as §1

The test system of test [10] is MOLT-13 (T-Lymphoblastic Leukemia). In a few lines: as §1
Test [11] relates to NCI-H1963 (Small Cell Lung Carcinoma). The method, boiled down:
as §1

Test [12] has as its system P30-OHK (B-Lymphoblastic Leukemia). In a few lines:
as §1

Test [13] has as its system PA-TU-8988T (Pancreatic Carcinoma). The method, boiled down: as §1
In test [14] the test system is SCC-4 (Oral Cavity Carcinoma). In a few lines:
as §1

Test [15] has as its system SK-N-SH (Neuroblastoma). In a few lines:
as §1

The test system of test [16] is SKG-IIIa (Cervical Carcinoma). The method, boiled down:
as §1

Test [17] concerns SNU-C2B (Colorectal Carcinoma). In a few lines:
as §1

For test [18], the system named is T47D (Breast Carcinoma). In a few lines: as §1
The test system of test [19] is TUR (Acute Myeloid Leukemia). The method, boiled down:
as §1

Test [20] has as its system WM35 (Melanoma). In a few lines: as §1

Turning to `CN(C)CCCOc1ccc(-c2ccc3ncc4c(c3c2)n(C2CCOCC2)c(=O)n4C)cn1` [AZD0156] + C=CCn1c(=O)c2cnc(Nc3ccc(N4CCN(C)CC4)cc3)nc2n1-c1cccc(C(C)(C)O)n1 [AZD1775] (first compound max 1 µM, partner max 1 µM), the Bliss excess in test [1] is -0.0209; in test [2] it was -0.0461; in test [3] it was -0.0013; in test [4] it was -0.0025; in test [5], -0.0316; in [6], 0.0014. The Bliss excess in test [7] is -0.0079; in [8], -0.0615; in test [9], -0.0739; in test [10], 0.0227; in test [11], -0.0147; in [12], 0.0179. For the same compound, the Bliss excess is -0.0504 in test [13]; -0.0393 in test [14]; -0.0533 in test [15]; -0.0565 in test [16]; -0.0328 in [17]; 0.0108 in [18]. Further, the Bliss excess in test [19] is 0.0088; in [20] it was -0.0166.

Regarding `CN(C)CCCOc1ccc(-c2ccc3ncc4c(c3c2)n(C2CCOCC2)c(=O)n4C)cn1` [AZD0156] + O=C(c1cc(Cc2n[nH]c(=O)c3ccccc23)ccc1F)N1CCN(C(=O)C2CC2)CC1 [Olaparib] (first compound max 3 µM, partner max 3 µM), the Bliss excess in [1] was 0.0766; in [2] it was 0.0868; in test [3] it was -0.193; in test [4], 0.0237; in test [5], -0.0054; in test [6] it was -0.0235. Also, the Bliss excess came to 0.0713 in test [7]; 0.0017 in test [8]; 0.0151 in test [9]; 0.139 in [10]; 0.262 in test [12]; 0.0235 in test [13]. Besides, the Bliss excess was 0.0057 in test [14]; -0.0043 in [15]; -0.0324 in test [16]; 0.0054 in test [17]; 0.0296 in test [18]; 0.0469 in [19]. Besides, the Bliss excess in [20] was -0.0272.

In the case of `C=CCn1c(=O)c2cnc(Nc3ccc(N4CCN(C)CC4)cc3)nc2n1-c1cccc(C(C)(C)O)n1` [AZD1775] + C1CN(CCC1(C(=O)N[C@@H](CCO)C2=CC=C(C=C2)Cl)N)C3=NC=NC4=C3C=CN4 [Capivasertib] (first compound max 3 µM, partner max 3 µM), the Bliss excess in test [1] was 0.0304; in test [2], -0.0323; in [3], -0.0949; in [4], -0.0415; in [5], -0.0086; in [6], -0.0806. Besides, the Bliss excess is -0.0462 in test [7]; 0.0043 in test [8]; 0.0286 in [9]; 0.0139 in test [10]; 0.0697 in test [12]; -0.0264 in test [13]. In addition, the Bliss excess in [14] is -0.0273; in test [15] it was -0.0626; in [16], -0.0139; in [17], -0.0573; in test [18] it was -0.031; in [19], 0.0434.

For `COc1nnc2ccc(N3CCC(c4ccc(OCCN5CCN(C)C(=O)[C@H]5C)cc4)CC3)nn12` [AZD5153] + CN(CC[C@H](CSC1=CC=CC=C1)NC2=C(C=C(C=C2)S(=O)(=O)NC(=O)C3=CC=C(C=C3)N4CCC(CC4)[C@H](C5=CC=CC=C5C6=CC=C(C=C6)Cl)O)S(=O)(=O)C(F)(F)F)CCO [AZD4320] (first compound max 1 µM, 7x7, partner max 1 µM), the Bliss excess in test [1] was 0.0367; in test [5], -0.0277; in test [9] it was 0.0239; in [10], 0.0376; in [11] it was 0.0696; in test [12], -0.0062. Besides, the Bliss excess in [13] turned out to be 0.048; in test [17], 0.0215; in [18], 0.055; in test [19], 0.0533; in test [20], 0.0983.

On to `CC(=O)c1c(C)c2cnc(Nc3ccc(N4CCNCC4)cn3)nc2n(C2CCCC2)c1=O` [Palbociclib] + CN(CC[C@H](CSC1=CC=CC=C1)NC2=C(C=C(C=C2)S(=O)(=O)NC(=O)C3=CC=C(C=C3)N4CCC(CC4)[C@H](C5=CC=CC=C5C6=CC=C(C=C6)Cl)O)S(=O)(=O)C(F)(F)F)CCO [AZD4320] (first compound max 10 µM, 7x7, partner max 1 µM), for which the Bliss excess is 0.0064 in test [1]; -0.121 in [5]; 0.0145 in [9]; -0.0216 in test [10]; 0.0164 in [11]; 0.0564 in test [12]. Further, the Bliss excess in test [13] is -0.0213; in test [17] it was -0.0867; in test [18] it was -0.0628; in test [19], -0.0635; in test [20], -0.114.

As to `CCc1c2c(nc3ccc(O)cc13)-c1cc3c(c(=O)n1C2)COC(=O)[C@]3(O)CC` [SN-38] + O=C(c1cc(Cc2n[nH]c(=O)c3ccccc23)ccc1F)N1CCN(C(=O)C2CC2)CC1 [Olaparib] (first compound max 0.3 µM, 7x7, partner max 10 µM), the Bliss excess in test [2] stood at 0.0577; in test [3], 0.0785; in [4] it was 0.105; in [5], 0.0978; in [6] it was 0.069; in test [7] it was 0.0352. In addition, the Bliss excess was determined as 0.026 in test [8]; 0.0336 in [9]; 0.0811 in [10]; 0.099 in test [11]; 0.0708 in test [12]; 0.023 in [13]. Besides, the Bliss excess came to 0.0071 in [14]; 0.0739 in test [15]; 0.0602 in test [16]; 0.0556 in [17]; 0.0623 in test [18]; 0.0429 in test [19]. Further, the Bliss excess in test [20] came out at 0.0733.

For the compound `C[C@@H](c1ccc2nccn2c1)n1nnc2ncc(-c3cnn(C)c3)nc21` [Savolitinib] + CN(CC[C@H](CSC1=CC=CC=C1)NC2=C(C=C(C=C2)S(=O)(=O)NC(=O)C3=CC=C(C=C3)N4CCC(CC4)[C@H](C5=CC=CC=C5C6=CC=C(C=C6)Cl)O)S(=O)(=O)C(F)(F)F)CCO [AZD4320] (first compound max 1 µM, 7x7, partner max 1 µM), the Bliss excess in test [1] is -0.0327; in test [5] it was -0.0522; in test [9], 0.0014; in [10], -0.0166; in [11], 0.0022; in test [12] it was -0.0183. Further, the Bliss excess in test [13] is -0.0581; in test [17], -0.101; in test [18], 0; in test [19], -0.0188; in test [20], -0.051.
